This is an account of results in patent publication US10077209B2, “Glazing unit comprising a hydrophilic layer having an improved scratch resistance” (SAINT-GOBAIN GLASS FRANCE, priority 2013, dated 2018).

The nature of this series: Solubility of bis-urea monomers in diacetone alcohol (DAA). To be noted: solvent diacetone alcohol. Type of series: physicochemical. The protocol: Three bis-urea monomers were synthesized from toluene-2,4-diisocyanate (TDI) on the one hand, 6-amino-1-hexanol, 2-amino-1-butanol and 2-aminopropanol on the other hand, all purchased from Aldrich. The TDI was stored at 4° C. with the aim of preventing side reactions. The dichloromethane was obtained from VWR and distilled and dried before use. The table below indicates the No. assigned to each bis-urea in the rest of the example, the starting products for its synthesis, a schematic representation of its formula and its solubility in DAA.
Turning to `Cc1ccc(NC(=O)NCC(C)O)cc1NC(=O)NCC(C)O` (stereo not drawn) [Bis-urea1], the “Solubility in DAA” value is on record as 8 % by wt.
In the case of `Cc1ccc(NC(=O)NCCCCCCO)cc1NC(=O)NCCCCCCO` [Bis-urea4] it was 7.5 % by wt; in that of `CCC(CO)NC(=O)Nc1ccc(C)c(NC(=O)NC(CC)CO)c1` (stereo not drawn) [Bis-urea5], 2.4 % by wt.
